Tests used:
CXCR4 [1] = molecular target: T1, CXCR4 (Homo sapiens, UniProt P61073); assay: β-Arrestin-2 recruitment in Tango CXCR4-bla U2OS cells; type: cell-based; conditions: antagonist at 1 μM
CXCR4 [2] = molecular target: T1, CXCR4; type: cell-based; conditions: log value

T1 sequence (P61073 whole entry): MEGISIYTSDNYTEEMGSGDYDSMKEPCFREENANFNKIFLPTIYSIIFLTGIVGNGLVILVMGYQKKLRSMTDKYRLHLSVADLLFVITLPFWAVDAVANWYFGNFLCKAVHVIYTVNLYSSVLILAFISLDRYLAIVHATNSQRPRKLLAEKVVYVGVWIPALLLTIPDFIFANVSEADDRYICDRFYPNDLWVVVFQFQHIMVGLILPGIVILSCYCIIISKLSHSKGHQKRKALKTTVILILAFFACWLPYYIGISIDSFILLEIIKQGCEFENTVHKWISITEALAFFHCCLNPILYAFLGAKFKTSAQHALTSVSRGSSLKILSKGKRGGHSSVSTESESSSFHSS

c1cc(CN2CCCNCCNCCCNCC2)ccc1CN1CCCNCCNCCCNCC1 [AMD3100]
effect on CXCL12 β-arrestin response (CXCR4 [1]): abolishes CXCL12 β-arrestin response

CXCL12: C-X-C Motif Chemokine Ligand 12, chemokine that binds CXCR4; endogenous ligand
inhibition of forskolin-stimulated cAMP production log IC50 (CXCR4 [2]): −8.9 ± 0.1 M
